Results on 1 molecule are retold here after patent US8309126B2, “Dispersible bosentan tablet” (Actelion Pharmaceuticals, Ltd., priority 2005, dated 2012).

This series in a line: Solubility of compound I in water. The format is physicochemical. From the text: The bitter taste of compound I can also be overcome by using flavouring agents (1.5) and/or sweetening agents (1.6).

Consider `COc1ccccc1Oc1c(NS(=O)(=O)c2ccc(C(C)(C)C)cc2)nc(-c2ncccn2)nc1OCCO` [compound I, 4-tert-butyl-N-[6-(2-hydroxy-ethoxy)-5-(2-methoxy-phenoxy)-2-(pyrimidin-2-yl)-pyrimidin-4-yl]-benzenesulfonamide], for which, where the note is “presence of an acidifying agent (1.4), tablet dispersed with water”, the “Effect of an acidifying agent on solubility of compound I” value is reported as “decreases the solubility”. The Solubility in water entry (water) is listed as “practically insoluble”.
